Experimental findings from PMC12621043, “Un-LOK-ing a New Approach for Conformational Selective Targeting of STK10 (LOK)” (ACS Medicinal Chemistry Letters, 2025) are described below.

Holding throughout (test): DSF Tm panel
What all share (assay type): binding
Conditions in all cases: 10 μM compound

One assay addresses T1, CAMK1GA (Homo sapiens, UniProt Q96NX5).
T1 construct: purchased in-house DSF kinase panel (SGC-style construct names; the trailing letter is the construct ID)

Another assay addresses T2, MARK3A (Homo sapiens, UniProt P27448).
T2 construct: purchased in-house DSF kinase panel (SGC-style construct names; the trailing letter is the construct ID)

The next assay concerns the target T3, STK38LA (Homo sapiens, UniProt Q9Y2H1).
T3 construct: purchased in-house DSF kinase panel (SGC-style construct names; the trailing letter is the construct ID)

Another assay has as its target T4, MERTK (Homo sapiens, UniProt Q12866).
T4 construct: purchased in-house DSF kinase panel (SGC-style construct names; the trailing letter is the construct ID)
T4 sequence (Q12866 570-864): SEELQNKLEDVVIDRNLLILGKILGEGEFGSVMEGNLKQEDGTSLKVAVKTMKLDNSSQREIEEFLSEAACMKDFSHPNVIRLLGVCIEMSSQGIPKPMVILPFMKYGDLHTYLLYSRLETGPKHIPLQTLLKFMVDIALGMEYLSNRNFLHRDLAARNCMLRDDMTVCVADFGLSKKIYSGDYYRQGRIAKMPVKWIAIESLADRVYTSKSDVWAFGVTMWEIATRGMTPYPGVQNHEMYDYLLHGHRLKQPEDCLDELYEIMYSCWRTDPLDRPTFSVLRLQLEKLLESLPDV

Another assay concerns RPS6KA6A.
Another assay addresses T5, RIOK1A (Homo sapiens, UniProt Q9BRS2).
T5 construct: purchased in-house DSF kinase panel (SGC-style construct names; the trailing letter is the construct ID)
T5 sequence (Q9BRS2 143-494): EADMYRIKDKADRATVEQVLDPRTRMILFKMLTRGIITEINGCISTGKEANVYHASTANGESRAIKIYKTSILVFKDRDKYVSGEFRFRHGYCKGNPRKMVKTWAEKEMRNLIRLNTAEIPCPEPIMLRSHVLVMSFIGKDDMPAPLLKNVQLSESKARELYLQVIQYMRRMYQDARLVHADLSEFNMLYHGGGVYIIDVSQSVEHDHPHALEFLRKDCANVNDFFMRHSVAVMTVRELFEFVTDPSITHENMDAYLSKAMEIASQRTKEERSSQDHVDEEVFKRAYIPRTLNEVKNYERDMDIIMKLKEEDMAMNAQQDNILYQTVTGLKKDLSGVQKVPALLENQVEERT

A further assay has as its target T6, UKL3A (ULK3A) (Homo sapiens, UniProt Q6PHR2).
T6 construct: purchased in-house DSF kinase panel (SGC-style construct names; the trailing letter is the construct ID)
T6 sequence (Q6PHR2 1-279): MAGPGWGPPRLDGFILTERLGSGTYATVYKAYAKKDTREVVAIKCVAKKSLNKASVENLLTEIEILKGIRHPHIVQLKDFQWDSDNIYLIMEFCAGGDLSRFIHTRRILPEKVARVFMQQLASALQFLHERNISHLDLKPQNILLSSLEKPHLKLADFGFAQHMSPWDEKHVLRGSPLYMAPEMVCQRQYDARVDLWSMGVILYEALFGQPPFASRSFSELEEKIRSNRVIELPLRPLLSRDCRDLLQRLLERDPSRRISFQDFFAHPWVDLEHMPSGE

Usually ΔTm stands for the shift of the melting midpoint relative to a reference.

T2 sequence (P27448 56-307): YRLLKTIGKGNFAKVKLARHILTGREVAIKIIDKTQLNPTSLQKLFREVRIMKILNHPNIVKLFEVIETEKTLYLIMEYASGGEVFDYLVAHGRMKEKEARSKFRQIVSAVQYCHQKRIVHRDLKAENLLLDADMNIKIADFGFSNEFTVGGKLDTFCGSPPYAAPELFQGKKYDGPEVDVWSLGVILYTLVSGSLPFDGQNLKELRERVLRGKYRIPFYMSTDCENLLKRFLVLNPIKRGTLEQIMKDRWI
T3 sequence (Q9Y2H1 90-453): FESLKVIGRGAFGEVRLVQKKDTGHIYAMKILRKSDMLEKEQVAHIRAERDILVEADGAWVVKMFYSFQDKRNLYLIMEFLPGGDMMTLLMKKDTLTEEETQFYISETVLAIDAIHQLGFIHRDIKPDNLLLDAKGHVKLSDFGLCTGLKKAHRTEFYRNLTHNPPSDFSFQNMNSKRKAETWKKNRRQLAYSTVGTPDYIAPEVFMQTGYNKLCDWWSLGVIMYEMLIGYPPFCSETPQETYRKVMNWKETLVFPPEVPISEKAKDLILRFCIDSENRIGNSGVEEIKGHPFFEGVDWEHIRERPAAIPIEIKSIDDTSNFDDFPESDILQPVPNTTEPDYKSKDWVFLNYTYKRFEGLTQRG
T1 sequence (Q96NX5 18-316): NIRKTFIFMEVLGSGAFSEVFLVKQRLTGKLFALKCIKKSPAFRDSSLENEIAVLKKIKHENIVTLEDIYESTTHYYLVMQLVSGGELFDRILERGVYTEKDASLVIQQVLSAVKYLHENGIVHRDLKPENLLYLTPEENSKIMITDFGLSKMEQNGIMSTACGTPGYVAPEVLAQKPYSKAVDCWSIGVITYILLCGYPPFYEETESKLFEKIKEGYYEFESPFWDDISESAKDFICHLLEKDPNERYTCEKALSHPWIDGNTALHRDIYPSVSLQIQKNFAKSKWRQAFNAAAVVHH

As to `Cc1cc(Cl)ccc1CNC(=O)Nc1ccc2cc1OCCOCCNc1ccn3ncc-2c3n1` [compound 23], the ΔTm at 10 µM is 2 °C at CAMK1GA; 2.4 °C at MARK3A; 1.7 °C on STK38LA; 3.1 °C on MERTK; 0.6 °C on RIOK1A; 3.7 °C on UKL3A (ULK3A). For the same compound, the “ΔTm RPS6KA6A” value with RPS6KA6A was -0,3 °C.
For the compound `CN1CCN(C(=O)Nc2ccc3cc2OCCOCCNc2ccn4ncc-3c4n2)CC1` [compound 35], the ΔTm at 10 µM at CAMK1GA came to 0 °C; on MARK3A, 0.5 °C; on STK38LA it was 0.4 °C; on MERTK, 0.4 °C; at RIOK1A it was 1.2 °C; on UKL3A (ULK3A), 2.7 °C. Also, the “ΔTm RPS6KA6A” value in the assay on RPS6KA6A is -0,3 °C.
